Results on one compound are retold here after patent US20240336563A1, “G-ALPHA-S INHIBITORS AND USES THEREOF” (The Regents of the University of California, priority 2021, published 2024).

“Also recorded” adds a separate entry of the source.

The target in experiment [1] is T1, Gαs(R201C/C237S) (Homo sapiens, UniProt P63092, C237S/R201C). The experiment in a line: Single turnover GTPase activity of Acr-modified Gαs. Type of experiment: biochemical. How it is done:
(§1) FIGS. 3A-3C show modification of C201 by acrylamide. […] The data represents the mean SE of three independent measurements. […] The data represents the mean±SD of at least three independent measurements.
(§2) Also effect of modifying C201 with Acr on the adenylyl cyclase-activating activity of GDP-bound Gαs(R201C/C237S) was calculated. […] The kcat of Gαs(C237S) is 1.539±0.153 min^−1 (measured at 0° C.), slightly higher than that of WT Gαs (FIG. 3C). […] Following Acr modification of the R201C/C237S mutant its kcat increased to 0.471±0.043 min^−1 (measured at 0° C.), about 30% of that of Gαs(C237S).

The target in experiment [2] is T1, Gαs(R201C/C237S). Nature of the experiment: Cysteine modification by acrylamidine. Type of experiment: binding. As to conditions: R201C/C237S double mutant. The source says:
(§3) The R201C mutation results in the loss of ammonium η1 and η2 of R201 thus freeing E50 to interact with R258 and R265 to indirectly stabilize switch II in an active-like conformation. Based on this finding, replacing the side chain of R201C with a close mimic of native arginine which contains N(η1) and N(η2) may correct the misactivation of the R201C mutant. […] This modification converts cysteine to an arginine mimic (FIG. 3A).

In experiment [3] the target is Gαs(R201C) (Homo sapiens, UniProt P63092, R201C). Nature of the experiment: Cysteine modification by acrylamidine. The conditions noted are these: R201C mutant. Type of experiment: binding.
From the text: as §3

Experiment [4] addresses GDP-bound Gαs(R201C/C237S) (Homo sapiens, UniProt P63092, C237S/R201C). The experiment in a line: Adenylyl cyclase-activating activity of Acr-modified Gαs. Type of experiment: biochemical. The conditions noted are these: in the presence of GDP and Gβ1/Gγ2(C68S), free Acr removed by gel filtration. The procedure:
as §1, §2
(In general: In gel filtration, larger molecules generally elute earlier.)

T1 sequence (P63092 7-380 isoform P63092-2 R187C/C223S limits assumed): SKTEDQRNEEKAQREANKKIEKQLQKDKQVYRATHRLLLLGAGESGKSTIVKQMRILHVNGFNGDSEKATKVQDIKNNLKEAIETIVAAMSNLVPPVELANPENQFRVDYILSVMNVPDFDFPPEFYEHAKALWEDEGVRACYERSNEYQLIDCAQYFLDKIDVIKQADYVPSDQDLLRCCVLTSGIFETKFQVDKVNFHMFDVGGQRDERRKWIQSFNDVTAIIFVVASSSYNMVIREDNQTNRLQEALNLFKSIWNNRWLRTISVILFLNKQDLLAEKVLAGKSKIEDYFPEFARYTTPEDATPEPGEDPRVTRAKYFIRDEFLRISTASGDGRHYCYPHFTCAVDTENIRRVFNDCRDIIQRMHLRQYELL
Chain of GDP-bound Gαs(R201C/C237S) (P63092 7-380 isoform P63092-2 R187C/C223S limits assumed): as above
Chain of Gαs(R201C) (P63092 7-380 isoform P63092-2 R187C limits assumed): as the sequence (P63092 7-380 isoform P63092-2 R187C/C223S limits assumed) above, with S217C counted along it

For the compound `C=CC(=N)N` [Acr, acrylamidine], the “single turnover GTPase activity of the R201C/C237S mutant after modification of C201 by Acr” value in experiment [1] (FIG. 3C legend) is “increased the single turnover GTPase activity of the R201C/C237S mutant to a level close to that of the C237S mutant”. Moreover, in experiment [1] (measured at 0° C.), the “kcat after Acr modification relative to that of Gαs(C237S)” value is on record as “about 30%” and the “kcat of R201C/C237S mutant following Acr modification” value is 0.00785 ± 0.000717 s⁻¹. In addition, the “cysteines modified by Acr” value in experiment [2] is “only Cys201 can be modified”. The “cysteines modified by Acr” value in experiment [3] was “can modify Cys237 and Cys201”. Besides, the “ability of Acr-modified Gαs(R201C/C237S) to activate adenylyl cyclase” value in experiment [4] is recorded as “lowered to the same level as that of Gαs(C237S); also recorded: decreased”.
